Measured values from patent US6503926B2, “Chemokine receptor antagonists and methods of use therefor” (Millennium Pharmaceuticals, Inc., priority 1998, dated 2003).

Biological target: T1, THP-1 cell membranes (RANTES / MIP-1α binding; chemokine receptor, believed CCR1) (Homo sapiens, UniProt P32246)
T1 sequence (P32246 1-355): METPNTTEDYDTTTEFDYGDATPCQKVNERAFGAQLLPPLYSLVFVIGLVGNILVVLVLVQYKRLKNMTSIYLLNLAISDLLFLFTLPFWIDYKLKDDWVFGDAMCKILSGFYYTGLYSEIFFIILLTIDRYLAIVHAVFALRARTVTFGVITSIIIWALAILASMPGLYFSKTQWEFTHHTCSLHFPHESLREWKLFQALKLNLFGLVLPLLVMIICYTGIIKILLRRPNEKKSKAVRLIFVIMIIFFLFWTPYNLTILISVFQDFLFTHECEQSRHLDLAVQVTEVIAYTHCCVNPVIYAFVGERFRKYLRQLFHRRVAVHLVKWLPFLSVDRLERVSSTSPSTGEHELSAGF
Assay: Receptor binding assay, 125I-RANTES or 125I-MIP-1α binding to THP-1 cell membranes
Settings: 125I-RANTES or 125I-MIP-1α as ligand, 60 min at room temperature, read-out: IC50 (inhibitor concentration required for 50% inhibition of specific binding)
Procedure: Membranes were prepared from THP-1 cells (ATCC #TIB202). Cells were harvested by centrifugation, washed twice with PBS (phosphate-buffered saline), and the cell pellets were frozen at -70 to -85° C. The frozen pellet was thawed in ice-cold lysis buffer consisting of 5 mM HEPES (N-2-hydroxyethylpiperazine-N'-2-ethane-sulfonic acid) pH 7.5, 2 mM EDTA (ethylenediaminetetraacetic acid), 5 μg/ml each aprotinin, leupeptin, and chymostatin (protease inhibitors), and 100 μg/ml PMSF (phenyl methane sulfonyl fluoride-also a protease inhibitor), at a concentration of 1 to 5×10^7 cells/ml. This procedure results in cell lysis. The suspension was mixed well to resuspend all of the frozen cell pellet. Nuclei and cell debris were removed by centrifugation of 400×g for 10 minutes at 4° C. The supernatant was transferred to a fresh tube and the membrane fragments were collected by centrifugation at 25,000×g for 30 minutes at 4° C. The supernatant was aspirated and the pellet was resuspended in freezing buffer consisting of 10 mM HEPES pH 7.5, 300 mM sucrose, 1 μg/ml each aprotinin, leupeptin, and chymostatin, and 10 μg/ml PMSF (approximately 0.1 ml per each 10^8 cells). All clumps were resolved using a minihomogenizer, and the total protein concentration was determined using a protein assay kit (Bio-Rad, Hercules, Calif., cat #500-0002). The membrane solution was then aliquoted and frozen at -70 to -85° C. until needed. Binding Assays-utilized the membranes described above. Membrane protein (2 to 20 μg total membrane protein) was incubated with 0.1 to 0.2 nM ^125I-labeled RANTES or MIP-1α with or without unlabeled competitor (RANTES or MIP-1α) or various concentrations of compounds. The binding reactions were performed in 60 to 100 μl of a binding buffer consisting of 10 mM HEPES pH 7.2, 1 mM CaCl2, 5 mM MgCl2, and 0.5% BSA (bovine serum albumin), for 60 min at room temperature. The binding reactions were terminated by harvesting the membranes by rapid filtration through glass fiber filters (GF/B or GF/C, Packard) which were presoaked in 0.3% polyethyleneimine. The filters were rinsed with approximately 600 μl of binding buffer containing 0.5 M NaCl, dried, and the amount of bound radioactivity was determined by scintillation counting in a Topcount beta-plate counter. […] Specific binding is defined as the total binding minus the non-specific binding; non-specific binding is the amount of cpm still detected in the presence of excess unlabeled Rantes or ^125MIP-1α.

| SMILES | IC50 [nM] |
| --- | --- |
| COc1cccc(C(=CCCN2CCC(O)(c3ccc(Cl)cc3)CC2)c2cccnc2)c1 [Example 1, 4-(4-Chlorophenyl)-1-[4-(3-methoxyphenyl)-4-(3-pyridinyl)-3-butenyl]piperidin-4-ol] | < 1000 |
| OC1(c2ccc(Cl)cc2)CCN(CCC=C(c2ccccc2)c2cccnc2)CC1 [Example 2, 4-(4-Chlorophenyl)-1-[4-phenyl-4-(3-pyridinyl)-3-butenyl]piperidin-4-ol] | < 1000 |
| COc1ccc(OC)c(C(=CCCN2CCC(O)(c3ccc(Cl)cc3)CC2)c2cccnc2)c1 [Example 3, 4-(4-Chlorophenyl)-1-[4-(2,5-dimethoxyphenyl)-4-(3-pyridinyl)-3-butenyl]piperidin-4-ol] | < 1000 |
| OC1(c2ccc(Cl)cc2)CCN(CCC=C(c2cccnc2)c2ccnc(Br)c2)CC1 [Example 4, 1-[4-(2-Bromo-4-pyridinyl)-4-(3-pyridinyl)-3-butenyl]-4-(4-chlorophenyl)piperidin-4-ol] | > 1000 |
